Results reported in patent US7579468B2, “Methods of modulating neurotrophin-mediated activity” (PainCeptor Pharma Corporation, priority 2005, dated 2009).
“Also recorded” adds a separate entry of the source.

Tested on: Male Sprague-Dawley rats
Experiment: Formalin Model - model of acute tonic pain
Type: in vivo, rat
Conditions: 6.5, 12.5 and 25 mg/kg i.p., Phase II
Method: Male Sprague-Dawley rats were given a subcutaneous injection of 50 μl of 2.5% formalin into the plantar surface of one hindpaw using a 27 gauge syringe needle, and nociceptive responses were measured for the next 60 min. Compound or vehicle was administered (i.p. or s.c.) 15-45 minutes prior to the formalin injection. A nociceptive score was determined for each 5 min block by measuring the amount of time spent in each of four behavioral categories: 0, the injected hindpaw is indistinguishable from that of the contralateral paw; 1, the injected paw has little or no weight placed on it; 2, the injected paw is elevated and is not in contact with any surface; 3, the injected paw is licked, bitten, or shaken. A weighted nociceptive score, ranging from 0 to 3 was calculated by multiplying the time spent in each category by the category weight, summing these products, and dividing by the total time for each 5 min block of time (Coderre et al., Pain 1993; 54: 43). On the basis of the resulting response patterns, 2 phases of nociceptive behaviour were identified and scored: first phase (P1; 0-5 min) and second phase (P2; 11-40 min).
Statistical analysis was performed using Prism™ 4.01 software package (GraphPad, San Diego, Calif., USA). […]

CC(=O)Nc1cc2c3c(cc(NC(C)=O)cc3c1)C(=O)N(CCCC(=O)O)C2=O [Compound 11, 4-(5,8-Bis-acetylamino-1,3-dioxo-1H,3H-benzo[de]isoquinolin-2-yl)-butyric acid]
Antinociceptive effect in the Formalin Test: significant dose-dependent antinociceptive effect; also recorded: significant antinociceptive effects
